Laboratory results reported in ChEMBL document CHEMBL1201862, “PubChem BioAssay data set” (2004).
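Interpolation was linear, between the two tested concentrations surrounding the appropriate level; five concentrations were tested over 48 hours in 96-well plates. Abbreviation: GI50, concentration required for 50% inhibition of growth.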 The source made the active and inactive calls. No stated cut-off is given here; in the data, active = GI50 up to about 1.1 µM and inactive = higher.

Columns and labels:
Assay in all cases: growth of human tumour cells (NCI), 48 h
786-0 = system: 786-0
HOP-62 = system: HOP-62
Hs-578T = system: Hs-578T
IGROV-1 = system: IGROV-1
K562 = system: K562
KM12 = system: KM12
LOX IMVI = system: LOX IMVI
M14 = system: M14
MDA-MB-231 = system: MDA-MB-231
MOLT-4 = system: MOLT-4
NCI-H522 = system: NCI-H522
PC-3 = system: PC-3
SK-MEL-28 = system: SK-MEL-28
SN12C = system: SN12C
SNB-19 = system: SNB-19
SNB-75 = system: SNB-75
T47D = system: T47D
TK-10 = system: TK-10
UO-31 = system: UO-31
SK-OV-3 = system: SK-OV-3

Measured: GI50

CCCCCC(O)C(O)CCC[C@H](O)[C@H]1CC[C@H]([C@H]2CC[C@H]([C@H](O)CCCCCCCCCCCCC3=C[C@H](C)OC3=O)O2)O1 (stereo not given in full)
inactive: 786-0 3.84 µM | HOP-62 5.2 µM | Hs-578T 2.91 µM | IGROV-1 3.24 µM | K562 1.38 µM | KM12 2.21 µM | LOX IMVI 1.21 µM | M14 3.49 µM | MDA-MB-231 4.32 µM | MOLT-4 2.32 µM | NCI-H522 4.88 µM | PC-3 2.94 µM | SK-MEL-28 2.56 µM | SN12C 3.87 µM | SNB-19 3.14 µM | SNB-75 5.43 µM | T47D 7.19 µM | TK-10 2.86 µM | UO-31 1.85 µM

C=CCOc1ccc2c(C)cc(=O)oc2c1C
inactive: 786-0 84.9 µM | HOP-62 > 100 µM | Hs-578T 26.9 µM | IGROV-1 63 µM | K562 52.5 µM | KM12 59.7 µM | LOX IMVI 43.8 µM | M14 46.5 µM | MDA-MB-231 32.2 µM | MOLT-4 35.1 µM | NCI-H522 29.2 µM | PC-3 35.3 µM | SK-MEL-28 > 100 µM | SN12C 98.4 µM | SNB-19 61.4 µM | SNB-75 52.6 µM | T47D 47.9 µM | UO-31 29.5 µM

COc1ccc(OC)c(N2C(=O)CSC2c2cc(OC)c(OC)c(OC)c2)c1 (stereo not given)
inactive: 786-0 > 100 µM | Hs-578T > 100 µM | IGROV-1 > 100 µM | K562 83.8 µM | KM12 81.7 µM | LOX IMVI > 100 µM | M14 > 100 µM | MDA-MB-231 > 100 µM | MOLT-4 > 100 µM | NCI-H522 40.6 µM | PC-3 > 100 µM | SK-MEL-28 > 100 µM | SK-OV-3 > 100 µM | SN12C > 100 µM | SNB-19 > 100 µM | TK-10 > 100 µM | UO-31 > 100 µM

NNc1nncc2[nH]nnc12
inactive: 786-0 > 100 µM | HOP-62 > 100 µM | Hs-578T > 100 µM | IGROV-1 > 100 µM | K562 > 100 µM | KM12 > 100 µM | M14 > 100 µM | MDA-MB-231 > 100 µM | MOLT-4 > 100 µM | PC-3 > 100 µM | SK-MEL-28 > 100 µM | SN12C > 100 µM | SNB-19 > 100 µM | SNB-75 5.74 µM | T47D > 100 µM | TK-10 > 100 µM | UO-31 > 100 µM

C=CCOc1ccc(C(=N/NC(=O)c2ccccc2)/N=N/c2ccccc2)cc1OC
inactive: 786-0 > 100 µM | HOP-62 > 100 µM | Hs-578T 70.8 µM | IGROV-1 > 100 µM | KM12 54.2 µM | LOX IMVI 42.1 µM | M14 > 100 µM | MDA-MB-231 70.6 µM | MOLT-4 42.6 µM | NCI-H522 93.5 µM | PC-3 79.1 µM | SK-MEL-28 > 100 µM | SN12C > 100 µM | SNB-19 > 100 µM | SNB-75 > 100 µM | T47D 24 µM | TK-10 > 100 µM | UO-31 92.9 µM

CN(C)C(=S)SCC(=O)Nc1ccccc1
inactive: 786-0 > 100 µM | HOP-62 > 100 µM | Hs-578T > 100 µM | IGROV-1 > 100 µM | K562 > 100 µM | KM12 > 100 µM | LOX IMVI > 100 µM | M14 > 100 µM | MDA-MB-231 > 100 µM | MOLT-4 > 100 µM | NCI-H522 57.9 µM | SK-MEL-28 80.4 µM | SK-OV-3 > 100 µM | SN12C > 100 µM | SNB-75 > 100 µM | T47D > 100 µM | UO-31 > 100 µM

OC(c1ccccc1)c1c(-c2ccccc2)[nH]c(-c2ccccc2)c1C(O)c1ccccc1 (stereo not given)
inactive: 786-0 4.38 µM | HOP-62 4.58 µM | Hs-578T 3.76 µM | IGROV-1 3.18 µM | K562 2.03 µM | KM12 3.25 µM | LOX IMVI 2.19 µM | M14 3.66 µM | MOLT-4 2.94 µM | NCI-H522 3.27 µM | PC-3 2.54 µM | SK-MEL-28 3.4 µM | SK-OV-3 4.25 µM | SN12C 2.38 µM | SNB-19 3.56 µM | T47D 4.86 µM | TK-10 4.44 µM | UO-31 1.45 µM

c1ccc2c(c1)sc1c3cnccc3ccc21
inactive: 786-0 > 100 µM | HOP-62 > 100 µM | Hs-578T 29 µM | IGROV-1 25.3 µM | K562 > 100 µM | KM12 46.6 µM | LOX IMVI 71.6 µM | M14 > 100 µM | MDA-MB-231 > 100 µM | MOLT-4 19.5 µM | NCI-H522 > 100 µM | SK-MEL-28 > 100 µM | SK-OV-3 > 100 µM | SN12C > 100 µM | SNB-19 > 100 µM | SNB-75 > 100 µM | T47D > 100 µM | TK-10 51.2 µM | UO-31 > 100 µM

N#C/C(=C\c1c[nH]c2ccccc12)C(=O)c1ccc(O)c(O)c1
inactive: 786-0 22.8 µM | HOP-62 19.2 µM | Hs-578T 47.2 µM | IGROV-1 24.6 µM | K562 23.2 µM | KM12 27.7 µM | LOX IMVI 23.7 µM | M14 38.5 µM | MOLT-4 12.4 µM | NCI-H522 13.5 µM | PC-3 33.8 µM | SK-MEL-28 47.3 µM | SK-OV-3 43.5 µM | SN12C 23.1 µM | SNB-19 32.4 µM | SNB-75 41 µM | T47D 31 µM | TK-10 51.2 µM | UO-31 6.85 µM

O=C(O)/C=C/C(=O)O [FUMARIC ACID]
inactive: 786-0 > 100 µM | HOP-62 > 100 µM | Hs-578T > 100 µM | IGROV-1 > 100 µM | K562 > 100 µM | KM12 > 100 µM | LOX IMVI > 100 µM | M14 > 100 µM | MDA-MB-231 > 100 µM | MOLT-4 > 100 µM | NCI-H522 > 100 µM | PC-3 > 100 µM | SK-MEL-28 > 100 µM | SN12C > 100 µM | SNB-19 > 100 µM | SNB-75 > 100 µM | T47D > 100 µM | TK-10 > 100 µM | UO-31 > 100 µM

Cn1cc(C[C@@H](N)C(=O)O)c2ccccc21 [INDOXIMOD]
inactive: 786-0 > 100 µM | HOP-62 > 100 µM | IGROV-1 > 100 µM | K562 > 100 µM | KM12 > 100 µM | LOX IMVI > 100 µM | M14 > 100 µM | MDA-MB-231 > 100 µM | MOLT-4 > 100 µM | NCI-H522 > 100 µM | PC-3 > 100 µM | SK-MEL-28 > 100 µM | SK-OV-3 > 100 µM | SN12C > 100 µM | SNB-19 > 100 µM | SNB-75 > 100 µM | T47D > 100 µM | TK-10 > 100 µM | UO-31 > 100 µM
